From patent US20190314382A1, “COMPOUNDS AND PHARMACEUTICAL COMPOSITIONS THEREOF FOR THE TREATMENT OF INFLAMMATORY DISEASES” (Galapagos NV, priority 2016, published 2019)

How the values were obtained:
Format in all cases: in vivo, human
Details in all cases: observed case
[1] = system: IL-2; test: Biomarker study in RA subjects: serum IL-2, Luminex 18-Plex
Description: (§1) Double-blind, placebo-controlled add on study in subjects with moderately to severely active RA who have an inadequate response to MTX (oral or parenteral).
(§2) 595 subjects randomized to one of 6 dose regimens of Compound 1 (dosed as a [Compound 1:HCl:3H2O]) (3 dose levels administered either once or twice daily) or placebo on top of each subject's stable dose of MTX.
(§3) Compound 1 (dosed as a [Compound 1:HCl:3H2O]) is dosed for twelve weeks once daily (q.d.) (50 mg, 100 mg or 200 mg) or twice daily (b.i.d.) (25 mg, 50 mg or 100 mg); or placebo.
(§4) 18 parameters from human serum samples (GM-CSF, IFNγ, IL-1β, IL-2, IL-4, IL-5, IL-6, IL-7, IL-8, IL-10, IL-12 (p70), IL-13, IL-17A, IL-21, IL-23, MIP-1α, MIP-1β and TNF-α) are analyzed on a Luminex Plateform (BioPlex® L200) using a Luminex 18-Plex Kit (Millipore: HSTCMAG-28SK).
(§5) Coupled beads react with the sample containing the biomarker of interest. […] Phycoerythrin (PE) serves as a fluorescent indicator.
(§6) The concentration of bead bound analyte is proportional to the MFI (Median Fluorescent Intensity) and back-calculated from interpolation with the calibration curve fitted with a 4 or 5 parameters logistic (4PL or 5PL) regression model selected during method pre-validation.
(§7) Treatment effect was assessed using an ANCOVA model on the changes from baseline, with factors: treatment, baseline value of the PD marker, geographical region and previous use of biologics.

[2] = system: IL-5; test: Biomarker study in RA subjects: serum IL-5, Luminex 18-Plex
Description: as §1, §2, §3, §4, §5, §6, §7

[3] = system: IL-10; test: Biomarker study in RA subjects: serum IL-10, Luminex 18-Plex
Description: as §1, §2, §3, §4, §5, §6, §7

[4] = system: IL-12 (p70); test: Biomarker study in RA subjects: serum IL-12, Luminex 18-Plex
Description: as §1, §2, §3, §4, §5, §6, §7

[5] = system: MIP-1α; test: Biomarker study in RA subjects: serum MIP-1α, Luminex 18-Plex
Description: as §1, §2, §3, §4, §5, §6, §7

[6] = 50 mg bid, Week 4, N = 73, RA subjects on MTX
[7] = 50 mg bid, Week 12, N = 73, RA subjects on MTX
[8] = 100 mg bid, Week 4, N = 79, RA subjects on MTX
[9] = 100 mg bid, Week 12, N = 79, RA subjects on MTX
[10] = 100 mg qd, Week 4, N = 68, RA subjects on MTX
[11] = 100 mg qd, Week 12, N = 68, RA subjects on MTX
[12] = 200 mg qd, Week 4, N = 75, RA subjects on MTX
[13] = 200 mg qd, Week 12, N = 75, RA subjects on MTX

With `O=C(Nc1nc2cccc(-c3ccc(CN4CCS(=O)(=O)CC4)cc3)n2n1)C1CC1` [Compound 1, cyclopropanecarboxylic acid {5-[4-(1,1-dioxo-thiomorpholin-4-ylmethyl)-phenyl]-[1,2,4]triazolo[1,5-a]pyridin-2yl}-amide] as the compound, how does the “IL-2 Mean change from baseline at Week 4” value [1, 6] read?
The value was -0.2 pg/mL.

What about the “IL-2 Mean change from baseline at Week 12” value [1, 7] of the same compound?
The value was -1.9 pg/mL.

What about the “IL-2 Mean change from baseline at Week 4” value [1, 8] of the same compound?
The value was -2.3 pg/mL.

What about the “IL-2 Mean change from baseline at Week 12” value [1, 9] of the same compound?
Its value is -4.1 pg/mL.

What about the “IL-2 Mean change from baseline at Week 4” value [1, 10] of the same compound?
Its value is -1.9 pg/mL.

And the “IL-2 Mean change from baseline at Week 12” value [1, 11]?
The value was -3.5 pg/mL.

What about the “IL-2 Mean change from baseline at Week 4” value [1, 12] of the same compound?
The value was -2.0 pg/mL.

And the “IL-2 Mean change from baseline at Week 12” value [1, 13]?
Its value is -3.3 pg/mL.

What about the “IL-5 Mean change from baseline at Week 4” value [2, 6] of the same compound?
Its value is -18.2 pg/mL.

What about the “IL-5 Mean change from baseline at Week 12” value [2, 7] of the same compound?
Its value is -18.1 pg/mL.

What about the “IL-5 Mean change from baseline at Week 4” value [2, 8] of the same compound?
The value was -0.8 pg/mL.

And the “IL-5 Mean change from baseline at Week 12” value [2, 9]?
Its value is -1.5 pg/mL.

What about the “IL-5 Mean change from baseline at Week 4” value [2, 10] of the same compound?
The value was -0.2 pg/mL.

What about the “IL-5 Mean change from baseline at Week 12” value [2, 11] of the same compound?
The value was -0.7 pg/mL.

And the “IL-5 Mean change from baseline at Week 4” value [2, 12]?
Its value is 0.1 pg/mL.

What about the “IL-5 Mean change from baseline at Week 12” value [2, 13] of the same compound?
The value was 0.0 pg/mL.

What about the “IL-10 Mean change from baseline at Week 4” value [3, 6] of the same compound?
Its value is -2.1 pg/mL.

What about the “IL-10 Mean change from baseline at Week 12” value [3, 7] of the same compound?
The value was -3.7 pg/mL.

What about the “IL-10 Mean change from baseline at Week 4” value [3, 8] of the same compound?
Its value is -3.3 pg/mL.

What about the “IL-10 Mean change from baseline at Week 12” value [3, 9] of the same compound?
The value was -4.2 pg/mL.

And the “IL-10 Mean change from baseline at Week 4” value [3, 10]?
Its value is 0.1 pg/mL.

What about the “IL-10 Mean change from baseline at Week 12” value [3, 11] of the same compound?
The value was -0.1 pg/mL.

What about the “IL-10 Mean change from baseline at Week 4” value [3, 12] of the same compound?
The value was -0.5 pg/mL.

And the “IL-10 Mean change from baseline at Week 12” value [3, 13]?
Its value is -1.5 pg/mL.

What about the “IL-12 Mean change from baseline at Week 4” value [4, 6] of the same compound?
The value was -1.9 pg/mL.

What about the “IL-12 Mean change from baseline at Week 12” value [4, 7] of the same compound?
The value was -2.3 pg/mL.

And the “IL-12 Mean change from baseline at Week 4” value [4, 8]?
The value was -2.3 pg/mL.

And the “IL-12 Mean change from baseline at Week 12” value [4, 9]?
The value was -3.9 pg/mL.

What about the “IL-12 Mean change from baseline at Week 4” value [4, 10] of the same compound?
Its value is -0.2 pg/mL.

And the “IL-12 Mean change from baseline at Week 12” value [4, 11]?
Its value is -1.2 pg/mL.

And the “IL-12 Mean change from baseline at Week 4” value [4, 12]?
The value was -1.7 pg/mL.

And the “IL-12 Mean change from baseline at Week 12” value [4, 13]?
The value was 20.5 pg/mL.

And the “MIP-1α Mean change from baseline at Week 4” value [5, 6]?
Its value is 1.0 pg/mL.

What about the “MIP-1α Mean change from baseline at Week 12” value [5, 7] of the same compound?
Its value is 8.5 pg/mL.

What about the “MIP-1α Mean change from baseline at Week 4” value [5, 8] of the same compound?
The value was -3.1 pg/mL.

What about the “MIP-1α Mean change from baseline at Week 12” value [5, 9] of the same compound?
Its value is -5.2 pg/mL.

And the “MIP-1α Mean change from baseline at Week 4” value [5, 10]?
Its value is 7.0 pg/mL.

And the “MIP-1α Mean change from baseline at Week 12” value [5, 11]?
Its value is 9.1 pg/mL.

And the “MIP-1α Mean change from baseline at Week 4” value [5, 12]?
The value was -1.6 pg/mL.

And the “MIP-1α Mean change from baseline at Week 12” value [5, 13]?
Its value is -2.6 pg/mL.
